Read-outs that look alike come from different tables or passages of the source.
Key:
[1] = Glutathione conjugation of benzoquinone ansamycins (HPLC, LC-MS); type: in vitro ADME; conditions: 50 μM BA, pH 7.4, room temperature
Experimental: BA-GSH conjugate formation was analyzed by HPLC at 270 nm and further confirmed by LC-MS.

SHSY-5Y cells = test: MTT growth inhibition assay in SHSY-5Y dopaminergic cells; type: cell-based, human; conditions: read-out: SHSY-5Y IC50
Experimental: The 19-substituted benzoquinone ansamycins were also tested in vitro for their ability to reduce the toxicity of BQAs to SH-SY5Y cells a dopaminergic model system of relevance to neurodegenerative disease. Referring to FIG. 9, toxicity of BQAs in SH-SY-5Y cells was measured using trypan blue exclusion (panel A), MTT growth inhibition assay (panel B) and annexin V/PI staining for apoptosis (panel C). Cells in A and C were treated with BQAs (5 μM) for 16 h; cells in B were treated with BQAs for 4 h then allowed to grow in drug-free medium for 72 h. […] The combination of these two properties are likely to be important to the neuroprotective properties of the 19-substituted BQAs.
Growth inhibition assays (MTT) were conducted in human SHSY-5Y cells following a 4 hr treatment with GA or 19Me-GA. Cell were allowed to grow for 72 hrs following drug treatment. The 19-methyl substituted compounds in all series were minimally toxic (see FIG. 12 for data with geldanamycin, MTT assay, results are expressed as the mean±SD, n=3).

[2] = Phase I / phase 1 clinical trials; cited from earlier work
[3] = system: MiaPaCa2 human pancreatic cancer cells; test: MTT growth inhibition in MiaPaCa2 cells; type: cell-based; conditions: 4 hr treatment, then 72 h growth, MTT, read-out: IC50 MiaPaCa2
Experimental: (§1) The inventors also examined the ability of 19 BQAs to inhibit the growth of human pancreatic cancer cell lines (FIG. 16). For growth inhibition studies (MTT) cells were treated with drugs for 4 hr and then allowed to grow for 72 h. For biomarker studies MiaPaCa2 cells were treated with DMAG analogs (5 μM) for 24 hr. 19 BQAs inhibit the growth of human pancreatic cancer cell lines (FIG. 16A, 16B) and induce biomarkers of Hsp90 inhibition (FIG. 16C) using isogenic Panc-1 (NQO1 null) and Panc-1/C5 (NQO1 expressing) cell lines.

[4] = system: primary mouse hepatocytes; test: Hepatotoxicity in primary mouse hepatocytes (MTT); type: cell-based; conditions: 4 hr, confirmed by Trypan Blue and AST leakage
Experimental: The inventors next tested the effect of 19-substitution of BQAs on hepatotoxicity in isolated hepatocyte systems. Isolated primary mouse hepatocytes were grown on coated 96-well plates and exposed to BQAs for 4 h after which their survival was determined using the MTT assay.
As described above, a major obstacle in the development of BQA as drugs has been their ability to induce hepatotoxicity in preclinical studies. […] Toxicity was measured using MTT assay and confirmed using Trypan Blue and AST leakage. The data shown in FIG. 19 were generated using MTT analysis but similar readouts were obtained using either trypan blue exclusion or leakage of AST from hepatocytes.

[5] = system: BT474 human breast cancer cells; test: MTT growth inhibition in BT474 cells; type: cell-based; conditions: BT474, 4 hr treatment, MTT 72 h later
Experimental: (§2) The inventors extended the studies with 19-substituted DMAG analogs to include the Her2^+ human breast cancer cell line BT474 (FIG. 15). Growth inhibition (FIG. 15, left panel) was measured in BT474 cells following treatment with analogs for 4 hr. Growth inhibition (MTT) was performed 72 h following drug treatments. Biomarkers of Hsp90 inhibition, Raf-1, AKT, CDK4 and Her2 degradation as well as Hsp70 induction were measured by immunoblot analysis in human BT474 breast cancer cells following treatment with 19-substituted DMAG analogs (5 μM) for 24 hr ([…], left panel).

[6] = system: Hsp90 (Raf-1, AKT, CDK4, Her2 degradation, Hsp70 induction); test: Immunoblot biomarkers of Hsp90 inhibition in BT474 cells; type: cell-based, human
Experimental: as §2

[7] = system: Hsp90 (Raf-1, AKT degradation and Hsp70 induction); test: Biomarkers of Hsp90 inhibition in MDA468/NQ16 cells; type: cell-based, human
Experimental: (§3) The ability of 19-substituted BQAs to induce growth inhibition was measured by MTT in isogenic MDA468 (null NQO1) and MDA468/NQ16 (high NQO1) cells. […] Biomarkers of Hsp90 inhibition (Raf-1, AKT degradation and Hsp70 induction) were more pronounced in MDA468/NQ16 cells compared to MDA468 cells following treatment with 19-substituted DMAG analogs.

[8] = system: human pancreatic cancer cell lines (Panc-1, Panc-1/C5); test: MTT growth inhibition in human pancreatic cancer cell lines; type: cell-based; conditions: human pancreatic cancer cell lines, 4 hr treatment, 72 h growth, MTT (FIG. 16A)
Experimental: as §1

Hsp90 = test: Biomarkers of Hsp90 inhibition in MiaPaCa2 cells; type: cell-based, human; conditions: 5 μM, 24 hr (FIG. 16C)
Experimental: as §1

p23/Hsp90 interaction = test: Immunoprecipitation of p23 and Hsp90 in BT474 cells; type: cell-based, human; conditions: 5 μM, 24 hr
Experimental: Forward and reverse immunoprecipitation studies were performed in BT474 cells treated with DMAG analogs (5 μM) for 24 hr.

cdc37/Hsp90 interaction = test: Immunoprecipitation of cdc37 with Hsp90 in BT474 and MDA468/NQ16 cells; type: cell-based, human; conditions: 5 μM, 24 hr
Experimental: Similarly, the association of cdc37 with hsp90 was examined in BT474 cells and MDA468/NQ16 cells by immunoprecipitation following treated with analogs (5 μM) for 24 hr. […] This finding is consistent with X ray data using purified Hsp90 showing that the larger 19-phenyl substituent causes greater conformational change in the Hsp90 structure than smaller 19-substituents (not shown). This also correlates with the differential effect of 19-phenyl and 19-methyl DMAG on clients chaperoned by cdc37 to Hsp90 which include Raf1, Akt, cdc2 and cdk4 (FIGS. 8,9,10).

[9] = system: MDA468/NQ16 breast cancer cells; test: MTT growth inhibition in isogenic MDA468/NQ16 and MDA468 cells; type: cell-based, human; conditions: NQO1-rich vs NQO1-null isogenic cells
Experimental: The 19-substituted benzoquinone ansamycins were also tested in vitro for their ability to inhibit growth similar to DMAG in human breast cancer cells (FIG. 10). MDA468/NQ16 breast cancer cells were treated with 19-substituted DMAG analogs for 4 hours, after which drug-containing media was removed and cells were allowed to grow for an additional 72 h. Cell viability was determined using the MTT assay.
as §3

[10] = Homo sapiens, SH-SY5Y, 4 hr treatment, then 72 hrs growth, MTT
[11] = 4 hr treatment, then 72 hrs growth, MTT

With `CO[C@H]1/C=C\C=C(/C)C(=O)NC2=CC(=O)C(NCCN3CCCC3)=C(C[C@@H](C)C[C@H](OC)[C@H](O)[C@@H](C)/C=C(\C)[C@@H]1OC(N)=O)C2=O` [17AEP-GA, 17-demethoxy-17-[[2-(pyrrolidin-1-yl)ethyl]amino]-geldanamycin] the “fraction conjugated with glutathione” value ([1]; 5 mM glutathione, within 10 h) was “about 90%”.
For `COC1=C2C[C@@H](C)C[C@H](OC)[C@H](O)[C@@H](C)/C=C(\C)[C@H](OC(N)=O)[C@@H](OC)/C=C\C=C(/C)C(=O)NC(=CC1=O)C2=O` [GA, geldanamycin, reference compound], the IC50 (SHSY-5Y cells; [10]) is listed as 0.133 µM and the “hepatotoxicity / toxicity in clinical trials” value (“hepatotoxicity / toxicity” below) [2] is listed as “unacceptable hepatotoxicity”.
For `CO[C@H]1/C=C\C=C(/C)C(=O)NC2=CC(=O)C(NCCN(C)C)=C(C[C@@H](C)C[C@H](OC)[C@H](O)[C@@H](C)/C=C(\C)[C@@H]1OC(N)=O)C2=O` [DMAG, 17-demethoxy-17-[[2-(dimethylamino)ethyl]amino]-geldanamycin, reference compound], the IC50 (SHSY-5Y cells; [11]) was 9.4 µM, the IC50 [3] was 0.13 ± 0.01 µM and the 17-DMAG-SG conjugate formed ([1]; 5 mM reduced glutathione, within 4 h) was “approximately 47 μM”. The hepatotoxicity [4] was “significant hepatotoxicity” and the “hepatotoxicity / toxicity” value [2] was “significant toxicities”.
With `C=CCNC1=C2C[C@@H](C)C[C@H](OC)[C@H](O)[C@@H](C)/C=C(\C)[C@H](OC(N)=O)[C@@H](OC)/C=C\C=C(/C)C(=O)NC(=C(c3ccccc3)C1=O)C2=O` [19Ph-17AAG, (4E,6Z,8S,9S,10E,12S,13R,14S,16R)-19-(Allylamino)-13-hydroxy-8,14-dimethoxy-4,10,12,16-tetramethyl-3,20,22-trioxo-21-phenyl-2-azabicyclo[16.3.1]docosa-1(21),4,6,10,18-pentaen-9-yl carbamate] the IC50 (SHSY-5Y cells; Homo sapiens, SH-SY5Y) was > 20 µM.
For `CO[C@H]1/C=C\C=C(/C)C(=O)NC2=C(C)C(=O)C(NCCN(C)C)=C(C[C@@H](C)C[C@H](OC)[C@H](O)[C@@H](C)/C=C(\C)[C@@H]1OC(N)=O)C2=O` [19Me-DMAG, (4E,6Z,8S,9S,10E,12S,13R,14S,16R)-19-(2-(Dimethylamino)ethylamino)-13-hydroxy-8,14-dimethoxy-4,10,12,16,21-pentamethyl-3,20,22-trioxo-2-azabicyclo[16.3.1]docosa-1(21),4,6,10,18-pentaen-9-yl carbamate], the IC50 (SHSY-5Y cells; [10]) was > 20 µM, the IC50 ([3]; Homo sapiens, MIA PaCa-2) was 35.8 ± 5.5 µM and the hepatotoxicity [4] was “no toxicity was observed”. For the same compound, the growth inhibition [5] was “no growth inhibition could be observed”, the Hsp70 induction ([6]; BT474, 5 μM, 24 hr, immunoblot) was “robust Hsp70 response” and the “effects on Hsp90 client proteins (Raf-1, AKT, Her2, CDK4)” value ([6]; BT474, 5 μM, 24 hr, immunoblot) was “diminished effects on Hsp90 client proteins”. The “effects on clients chaperoned by cdc37 to Hsp90 (Raf1, Akt, cdc2, cdk4)” value ([6]; cell line not given) was “had little effect”, the Hsp70 induction ([7]; MDA468/NQ16 (high NQO1) cells) was “equivalent Hsp70 response to 19-phenyl DMAG” and the “Raf-1 and AKT degradation” value ([7]; MDA468/NQ16 (high NQO1) cells) was “much less pronounced effect on Hsp90 Raf1 and Akt”. For the same compound, the growth inhibitory activity [8] was “little effect”, the “induction of biomarkers of Hsp90 inhibition” value (Hsp90) was “little effect” and the “interaction of p23 and Hsp90” value (p23/Hsp90 interaction) was “disrupted the interaction of p23 and Hsp90”. For the same compound, the “interaction of cdc37 with Hsp90” value (cdc37/Hsp90 interaction) was “had little effect”.
For `C=CCNC1=C2C[C@@H](C)C[C@H](OC)[C@H](O)[C@@H](C)/C=C(\C)[C@H](OC(N)=O)[C@@H](OC)/C=C\C=C(/C)C(=O)NC(=C(C)C1=O)C2=O` [19Me-17AAG, (4E,6Z,8S,9S,10E,12S,13R,14S,16R)-19-(Allylamino)-13-hydroxy-8,14-dimethoxy-4,10,12,16,21-pentamethyl-3,20,22-trioxo-2-azabicyclo[16.3.1]docosa-1(21),4,6,10,18-pentaen-9-yl carbamate], the IC50 (SHSY-5Y cells; Homo sapiens, SH-SY5Y) was > 20 µM.
With `COC1=C2C[C@@H](C)C[C@H](OC)[C@H](O)[C@@H](C)/C=C(\C)[C@H](OC(N)=O)[C@@H](OC)/C=C\C=C(/C)C(=O)NC(=C(C)C1=O)C2=O` [19Me-GA, (4E,6Z,8S,9S,10E,12S,13R,14S,16R)-13-Hydroxy-8,14,19-trimethoxy-,10,12,16,21-pentamethyl-3,20,22-trioxo-2-azabicyclo[16.3.1]docosa-1(21),4,6,10,18-pentaen-9-yl carbamate] the IC50 (SHSY-5Y cells; Homo sapiens, SH-SY5Y) was > 10 µM.
In the case of `C=CCNC1=C2C[C@@H](C)C[C@H](OC)[C@H](O)[C@@H](C)/C=C(\C)[C@H](OC(N)=O)[C@@H](OC)/C=C\C=C(/C)C(=O)NC(=CC1=O)C2=O` [17AAG, 17-demethoxy-17-(2-propenylamino)-geldanamycin, reference compound], the IC50 (SHSY-5Y cells; [11]) is reported as 16.2 µM, the “decrease in IC50 in MDA468/NQ16 cells compared to MDA468 cells” value [9] is reported as “greater than 66 fold” and the “effect on markers of Hsp90 inhibition (Hsp70 induction and Raf-1 degradation) in MDA468/NQ16 compared to MDA468 cells” value [7] is reported as “greater effect on markers of Hsp90 inhibition”. For the same compound, the “hepatotoxicity / toxicity” value [2] was “dose-limiting toxicity”.

Source: US9603829B2, “HSP90 inhibitors with modified toxicity” (THE REGENTS OF THE UNIVERSITY OF COLORADO, a body corporate, priority 2011, dated 2017)
